This is an account of results in US8410141B2, “Insecticidal arylpyrrolines” (Bayer Cropscience AG, priority 2009, dated 2013).

SMILES strings stand for the structures.

Format in all cases: in vivo
Data set [1] has as its system Tobacco Cutworm (Spodoptera litura) Larvae. Description: Test against tobacco cutworm (Spodoptera litura) larvae, leaf immersion. To be noted: 100 ppm; sweet potato leaves immersed; third-instar larvae; after 7 days. As to the method:
(§1) Unless not mentioned otherwise, the test solutions were prepared as follows:
(§2) Containing as solvent: Dimethylformamide, 3 parts by weight; and as emulsifier: Polyoxyethylene alkyl phenyl ether, 1 part by weight. To prepare the test solution, 1 part by weight of an active compound is mixed with the above-mentioned amount of solvent containing the above-mentioned amount of emulsifier, and the mixture is diluted with water to the desired concentration.
The leaves of sweet potato were immersed in the test solution at the appropriate concentration, and the leaves were dried in air. The leaves were then placed in a petri dish having a diameter of 9 cm, and ten third-instar larvae of tobacco cutworm were released therein. The petri dish was placed in a temperature-controlled chamber at 25° C. After 2 days and 4 days sweet potato leaves were additionally added. After 7 days, the number of dead larvae was counted to calculate the insecticidal activity. An insecticidal activity of 100% means that all larvae were killed, whereas an insecticidal activity of 0% means that no larva was killed. In the current test, the results of two petri dishes for each partition were averaged.

For data set [2], the system named is Two-Spotted Spider Mite (Tetranychus urticae). Description: Test against two-spotted spider mite (Tetranychus urticae), spray. To be noted: 100 ppm; sprayed on kidney bean; adult mites; after 7 days. On the procedure: as §1, §2
50 to 100 adult two-spotted spider mites were inoculated onto the leaves of kidney beans at the two-true leaf stage, which plant had been cultivated in a pot having a diameter of 6 cm. After one day, test solution at the appropriate concentration was sprayed thereon in a sufficient amount using a spray gun. After the spraying, the plant pot was placed inside a greenhouse, and after 7 days, the acaricidal activity was calculated. An acaricidal activity of 100% means that all mites were killed, whereas an acaricidal activity of 0% means that no mite was killed.

Data set [3] relates to Cucurbit Leaf Beetle (Aulacophora femoralis). Description: Test against cucurbit leaf beetle (Aulacophora femoralis), leaf immersion. As to conditions: 100 ppm; cucumber leaves immersed; second-instar larvae; after 7 days. On the procedure: as §1, §2
Cucumber leaves were immersed in the test solution at the appropriate concentration, and the leaves were dried in air. The leaves were then placed in a plastic cup containing sterilized black soil, and five second-instar larvae of cucurbit leaf beetle were released therein. The plastic cup was placed in a temperature-controlled chamber at 25° C. After 7 days, the number of dead larvae was counted, and thus the insecticidal activity was calculated. An insecticidal activity of 100% means that all beetles were killed, whereas an insecticidal activity of 0% means that no beetle was killed.

For data set [4], the system named is Tobacco Cutworm (Spodoptera litura) Larvae. Description: Test against tobacco cutworm larvae, root systemicity. As to conditions: 100 ppm; broccoli seedling roots dipped 3 days; second-instar larvae; after 4 days. As to the method: as §1, §2
The roots of seedling of broccoli at 1.2 leaf stage were dipped into the test solution at the appropriate concentration. After 3 days, the leaves were cut and placed in a petri dish having a diameter of 9 cm. And then five second-instar larvae of tobacco cutworm were released therein. The petri dish was placed in a temperature-controlled room at 25° C. After 4 days, the number of dead larvae was counted, to calculate the insecticidal activity. An insecticidal activity of 100% means that all larvae were killed, whereas an insecticidal activity of 0% means that no larva was killed.

The test system of a further data set is Musca domestica. Briefly: Musca domestica test. As to conditions: 100 ppm; sponge with sugar and compound solution; adults; after 2 days. On the procedure: (§3) Solvent: dimethyl sulfoxide
To produce a suitable preparation of active compound, 10 mg of active compound are dissolved in 0.5 ml solvent, and the concentrate is diluted with water to the desired concentration. Prior to the assay, a piece of kitchen sponge is soaked with a mixture of sugar and compound solution and placed into a container. 10 adults (Musca domestica) are placed into the container and closed with a perforated lid. After 2 days mortality in % is determined. 100% means that all the flies have been killed; 0% means that none of the flies have been killed.

For data set [5], the system named is Nymphs of the tick Amblyomma hebraeum. Briefly: Amblyomma hebraeum test (AMBYHE). As to conditions: 100 ppm; nymphs immersed one minute; after 42 days. On the procedure:
as §3
To produce a suitable preparation of active compound, 10 mg of active compound are dissolved in 0.5 ml solvent, and the concentrate is diluted with water to the desired concentration. Nymphs of the tick Amblyomma hebraeum are placed in perforated plastic beakers and immersed in aqueous compound solution for one minute. Ticks are transferred to a filter paper in a petri dish and incubated in a climate chamber for 42 days.
After 42 days mortality in % is determined. 100% means that all the ticks have been killed; 0% means that none of the ticks have been killed.

The test system of data set [6] is Tobacco Cutworm (Spodoptera litura) Larvae. Description: Test against tobacco cutworm larvae, systemic test by soil drench. To be noted: 250 ppm, 20 ml soil drench on potted broccoli, leaves cut after 7 days, third-instar larvae. On the procedure: as §1, §2
20 ml of the test solution at the appropriate concentration was treated on the soil surface of potted broccoli seedling at 2 to 3 leaf stage. After 7 days, the leaves were cut and placed in a petri dish having a diameter of 9 cm. And then ten third-instar larvae of tobacco cutworm were released therein. The petri dish was placed in a temperature-controlled room at 25° C. After 7 days, the number of dead larvae was counted to calculate the insecticidal activity. An insecticidal activity of 100% means that all larvae were killed, whereas an insecticidal activity of 0% means that no larva was killed. […] The comparative compound A is No. 1-72 in WO2009/097992.

Data set [7] has as its system adult engorged female Boophilus microplus ticks. Description: Boophilus microplus (dip). As to conditions: 100 ppm; ticks immersed one minute; after 7 days. As to the method:
Solvent: Dimethylsulfoxid
To produce a suitable preparation of active compound, 10 mg of active compound are dissolved in 0.5 ml solvent, and the concentrate is diluted with water to the desired concentration. Eight to ten adult engorged female Boophilus microplus ticks are placed in perforated plastic beakers and immersed in aqueous compound solution for one minute. Ticks are transferred to a filter paper in a plastic tray. Egg deposition of fertile eggs is monitored after. After 7 days mortality in % is determined. 100% means that all the ticks have been killed; 0% means that none of the ticks have been killed.

A further data set has as its system Ctenocephalides felis. Description: Ctenocephalides felis test (CTECFE). As to conditions: 100 ppm in cattle blood; adult unfed fleas; after 2 days. On the procedure:
as §3
To produce a suitable preparation of active compound, 10 mg of active compound are dissolved in 0.5 ml solvent, and the concentrate is diluted with cattle blood to the desired concentration. Approximately 20 adult unfed (Ctenocepahlides felis) are placed in flea chambers. The blood chamber, sealed with parafilm on the bottom, are filled with cattle blood supplied with compound solution and placed on top of the flea chamber, so that the fleas are able to suck the blood. The blood chamber is heated to 37° C. whereas the flea chamber is kept at room temperature. After 2 days mortality in % is determined. 100% means that all the fleas have been killed; 0% means that none of the fleas have been killed.

With `FC(F)(F)C1(c2cc(Cl)nc(Cl)c2)CN=C(c2ccc(-n3cncn3)cc2)C1` (stereo not drawn) [1-2], the insecticidal activity in data set [1], in data set [3] and in data set [4] was 100% throughout. Besides, the acaricidal activity rate in [2] is 100%. This compound displayed a mortality in the data set on Musca domestica of 90%.
`N#Cc1cc(C2=NCC(c3cc(Cl)cc(C(F)(F)F)c3)(C(F)(F)F)C2)ccc1-n1cncn1` (stereo not drawn) [1-10]: the insecticidal activity in [1], in data set [3] and in data set [4] was 100% throughout. Moreover, the acaricidal activity rate in [2] is listed as 100%. The same compound gave a mortality in data set [5] of 100%.
Consider `N#Cc1cc(C2=NCC(c3cc(Cl)c(F)c(Cl)c3)(C(F)(F)F)C2)ccc1-n1cncn1` (stereo not drawn) [1-13], for which the insecticidal activity in [1], in [3] and in data set [4] was 100% each time. The compound also gave an acaricidal activity rate in data set [2] of 100%. This compound also displayed a mortality in [5] of 100%.
As to `N#Cc1cc(C2=NCC(c3cccc(C(F)(F)F)c3F)(C(F)(F)F)C2)ccc1-n1cncn1` (stereo not drawn) [1-19], the insecticidal activity in data set [1] and in data set [3] was 100% throughout. The compound also displayed an acaricidal activity rate in data set [2] of 100%. The mortality in the data set with Musca domestica came to 90%.
As for `N#Cc1cc(C2=NCC(c3cc(Cl)c(F)c(Cl)c3F)(C(F)(F)F)C2)ccc1-n1cncn1` (stereo not drawn) [1-20], the insecticidal activity in data set [1], in data set [3] and in [4] was 100% each time. The acaricidal activity rate in data set [2] is given as 100%. For the same compound, the mortality in [5] is listed as 100%.
Turning to `N#Cc1cc(C2=NCC(c3ccnc(C(F)(F)F)c3)(C(F)(F)F)C2)ccc1-n1cncn1` (stereo not drawn) [1-21], the insecticidal activity in data set [1], in [3], in data set [4] and in data set [6] was 100% throughout. The compound further showed an acaricidal activity rate in data set [2] of 100%. In the data set with Musca domestica, the mortality was determined as 80%.
With `Fc1cc(C2=NCC(c3cc(Cl)c(Cl)c(Cl)c3)(C(F)(F)F)C2)ccc1-n1cncn1` (stereo not drawn) [1-29], the insecticidal activity in data set [1] and in [3] was 100% in each case. In [7], this compound registered a mortality of 95%.
As for `FC(F)(F)C1(c2cc(Cl)c(Cl)c(Cl)c2)CN=C(c2ccc(-n3cncn3)c(Cl)c2)C1` (stereo not drawn) [1-30], the insecticidal activity in [1] and in data set [3] was 100% throughout. The compound also returned an acaricidal activity rate in [2] of 100%. In the data set with Ctenocephalides felis, this compound yielded a mortality of 90%.
Regarding `N#Cc1cc(C2=NCC(c3cc(Cl)c(Cl)c(Cl)c3)(C(F)(F)F)C2)cnc1-n1cncn1` (stereo not drawn) [1-52], the insecticidal activity in data set [1] and in data set [3] was 100% throughout. The acaricidal activity rate in data set [2] amounted to 100%. Moreover, the mortality in data set [7] came to 90%.
With `N#Cc1cc(C2=NCC(c3cc(Cl)nc(Cl)c3)(C(F)(F)F)C2)cnc1-n1cncn1` (stereo not drawn) [1-66], the insecticidal activity in [1], in [3] and in data set [4] was 100% in each case. Moreover, the mortality in the data set on Musca domestica is listed as 80%.
For the compound `N#Cc1cc(C2=NCC(c3cccc(C(F)(F)F)n3)(C(F)(F)F)C2)ccc1-n1cncn1` (stereo not drawn) [1-126], the insecticidal activity in data set [1], in data set [3] and in data set [4] was 100% throughout. In addition, the mortality with Ctenocephalides felis and in the data set with Musca domestica was 90% in each case.
For the compound `N#Cc1cc(C2=NCC(c3cncc(Cl)c3)(C(F)(F)F)C2)ccc1-n1cncn1` (stereo not drawn) [1-480], the acaricidal activity rate in data set [2] is listed as 100%. In [3], this compound returned an insecticidal activity of 100%. Further, the mortality in the data set with Ctenocephalides felis was found to be 90%.
In turn, `N#Cc1cc(C2=NCC(c3cccc(OC(F)F)c3)(C(F)(F)F)C2)ccc1-n1cncn1` (stereo not drawn) [1-483] returned an acaricidal activity rate in data set [2] of 100%. In addition, the insecticidal activity in data set [3] stood at 100%. Besides, the mortality with Ctenocephalides felis turned out to be 90%.
`N#Cc1cc(C2=NCC(c3cc(OC(F)F)cc(OC(F)F)c3)(C(F)(F)F)C2)ccc1-n1cncn1` (stereo not drawn) [1-485]: the insecticidal activity in data set [1], in data set [3] and in [4] was 100% throughout. Besides, in data set [2], the acaricidal activity rate came to 100%. Moreover, in data set [7], the mortality is reported as 90%.
For `N#Cc1cc(C2=NCC(c3cc(Cl)c([N+](=O)[O-])c(Cl)c3)(C(F)(F)F)C2)ccc1-n1cncn1` (stereo not drawn) [1-489], the insecticidal activity in [1] is on record as 100%. Also, the mortality (in [7]; in the data set on Musca domestica) was 80% throughout.
For the compound `CCC(=O)NCc1ccc(C2=NCC(c3cc(C(F)(F)F)cc(C(F)(F)F)c3)(C(F)(F)F)C2)cc1` (stereo not drawn) [2-647], the insecticidal activity in [1], in data set [3] and in [4] was 100% each time. The same compound returned an acaricidal activity rate in data set [2] of 100%.
`O=C(CC(F)(F)F)NCc1ccc(C2=NCC(c3cc(C(F)(F)F)cc(C(F)(F)F)c3)(C(F)(F)F)C2)cc1` (stereo not drawn) [2-648]: the insecticidal activity in data set [1], in [3] and in data set [4] was 100% throughout. In addition, the acaricidal activity rate in data set [2] came to 100%.

The mortality is the share of the test organisms that died.
